Experimental data reported in ChEMBL document CHEMBL2073861, “Molecular identification of a novel carnitine transporter specific to human testis. Insights into the mechanism of carnitine recognition” (J Biol Chem, 2002).
Blank lines part the entries; values can stand above or below the molecule they belong to.

Experiments:
[1] = molecular target: T1, Organic cation/carnitine transporter 2 (Homo sapiens, UniProt O76082); assay: TP_TRANSPORTER: inhibition of carnitine transport by Carnitine-related compound-3A at 20uM in Xenopus laevis oocytes; assay type: functional, cell-based, Oocyte; design: scale not given: the % may be the effect or the level left; conditions: probe carnitine, read-out: Activity
T1 sequence (O76082 whole entry): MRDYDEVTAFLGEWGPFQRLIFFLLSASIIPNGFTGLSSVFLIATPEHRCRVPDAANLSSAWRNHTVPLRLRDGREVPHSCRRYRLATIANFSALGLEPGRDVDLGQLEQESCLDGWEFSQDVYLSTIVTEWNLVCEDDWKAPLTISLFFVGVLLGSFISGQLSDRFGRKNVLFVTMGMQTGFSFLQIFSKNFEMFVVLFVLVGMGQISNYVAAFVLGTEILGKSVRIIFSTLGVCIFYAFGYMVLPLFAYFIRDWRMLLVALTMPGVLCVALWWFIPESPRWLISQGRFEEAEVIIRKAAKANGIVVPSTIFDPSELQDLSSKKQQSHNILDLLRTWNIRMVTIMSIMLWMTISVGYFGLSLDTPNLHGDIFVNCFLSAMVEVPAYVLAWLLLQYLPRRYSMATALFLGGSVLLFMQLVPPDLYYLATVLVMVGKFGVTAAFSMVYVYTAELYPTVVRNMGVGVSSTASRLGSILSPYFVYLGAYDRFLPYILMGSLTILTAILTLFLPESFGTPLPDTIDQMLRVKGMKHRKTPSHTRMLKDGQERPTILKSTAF

[2] = molecular target: Solute carrier family 22 member 16 (Homo sapiens) (UniProt Q86VW1); assay: TP_TRANSPORTER: inhibition of carnitine uptake by Carnitine-related compound-3A at 20uM in Xenopus laevis oocytes; design: scale not given: the % may be the effect or the level left; conditions: Oocyte
[3] = molecular target: Solute carrier family 22 member 16 (Homo sapiens) (UniProt Q86VW1); assay: TP_TRANSPORTER: inhibition of carnitine uptake by Carnitine-related compound-10A at 20uM in Xenopus laevis oocytes; design: scale not given: the % may be the effect or the level left; conditions: Oocyte
[4] = molecular target: T1, Organic cation/carnitine transporter 2; assay: TP_TRANSPORTER: inhibition of carnitine uptake by Carnitine-related compound-10A at 20uM in Xenopus laevis oocytes; assay type: functional, cell-based, Oocyte; design: scale not given: the % may be the effect or the level left; conditions: probe carnitine, read-out: Activity
[5] = molecular target: T1, Organic cation/carnitine transporter 2; assay: TP_TRANSPORTER: inhibition of carnitine uptake by Carnitine-related compound-14 at 20uM in Xenopus laevis oocytes; assay type: functional, cell-based, Oocyte; design: scale not given: the % may be the effect or the level left; conditions: probe carnitine, read-out: Activity
[6] = molecular target: Solute carrier family 22 member 16 (Homo sapiens) (UniProt Q86VW1); assay: TP_TRANSPORTER: inhibition of carnitine uptake by Carnitine-related compound-11A at 20uM in Xenopus laevis oocytes; design: scale not given: the % may be the effect or the level left; conditions: Oocyte
[7] = molecular target: T2, Solute carrier family 22 member 16 (Homo sapiens, UniProt Q86VW1); assay: TP_TRANSPORTER: inhibition of carnitine transport by Acetyl-L-carnitine at 5uM in Xenopus laevis oocytes; assay type: functional, cell-based, Oocyte; design: scale not given: the % may be the effect or the level left; conditions: probe carnitine, read-out: Activity
T2 sequence (Q86VW1 whole entry): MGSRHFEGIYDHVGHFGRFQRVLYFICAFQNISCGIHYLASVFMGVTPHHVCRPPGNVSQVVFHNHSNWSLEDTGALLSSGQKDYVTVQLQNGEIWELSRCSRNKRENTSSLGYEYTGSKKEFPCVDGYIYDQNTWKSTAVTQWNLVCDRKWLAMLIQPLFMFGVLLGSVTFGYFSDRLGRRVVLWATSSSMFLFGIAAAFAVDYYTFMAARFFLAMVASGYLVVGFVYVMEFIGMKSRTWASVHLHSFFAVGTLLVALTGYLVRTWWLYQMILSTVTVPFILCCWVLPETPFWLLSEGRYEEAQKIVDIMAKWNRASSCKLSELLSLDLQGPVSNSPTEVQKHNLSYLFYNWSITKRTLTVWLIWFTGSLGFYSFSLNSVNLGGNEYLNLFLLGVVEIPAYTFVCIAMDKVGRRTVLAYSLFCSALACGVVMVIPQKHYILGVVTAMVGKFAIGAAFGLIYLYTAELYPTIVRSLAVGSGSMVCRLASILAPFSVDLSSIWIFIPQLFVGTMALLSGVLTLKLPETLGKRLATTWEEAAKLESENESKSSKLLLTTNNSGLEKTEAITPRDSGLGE

[8] = molecular target: Solute carrier family 22 member 16 (Homo sapiens) (UniProt Q86VW1); assay: TP_TRANSPORTER: inhibition of carnitine uptake by Carnitine-related compound-12A at 20uM in Xenopus laevis oocytes; design: scale not given: the % may be the effect or the level left; conditions: Oocyte
[9] = molecular target: T1, Organic cation/carnitine transporter 2; assay: TP_TRANSPORTER: inhibition of carnitine transport by Carnitine-related compound-9A at 20uM in Xenopus laevis oocytes; assay type: functional, cell-based, Oocyte; design: scale not given: the % may be the effect or the level left; conditions: probe carnitine, read-out: Activity
[10] = molecular target: Solute carrier family 22 member 16 (Homo sapiens) (UniProt Q86VW1); assay: TP_TRANSPORTER: inhibition of carnitine uptake by Carnitine-related compound-9A at 20uM in Xenopus laevis oocytes; design: scale not given: the % may be the effect or the level left; conditions: Oocyte
[11] = molecular target: Solute carrier family 22 member 16 (Homo sapiens) (UniProt Q86VW1); assay: TP_TRANSPORTER: inhibition of carnitine uptake by Carnitine-related compound-5A at 20uM in Xenopus laevis oocytes; design: scale not given: the % may be the effect or the level left; conditions: Oocyte
[12] = molecular target: T1, Organic cation/carnitine transporter 2; assay: TP_TRANSPORTER: inhibition of carnitine uptake by Carnitine-related compound-5A at 20uM in Xenopus laevis oocytes; assay type: functional, cell-based, Oocyte; design: scale not given: the % may be the effect or the level left; conditions: probe carnitine, read-out: Activity
[13] = molecular target: Solute carrier family 22 member 16 (Homo sapiens) (UniProt Q86VW1); assay: TP_TRANSPORTER: inhibition of carnitine uptake by Carnitine-related compound-17 at 20uM in Xenopus laevis oocytes; design: scale not given: the % may be the effect or the level left; conditions: Oocyte
[14] = molecular target: Solute carrier family 22 member 16 (Homo sapiens) (UniProt Q86VW1); assay: TP_TRANSPORTER: inhibition of carnitine uptake by Carnitine-related compound-7A at 20uM in Xenopus laevis oocytes; design: scale not given: the % may be the effect or the level left; conditions: Oocyte
[15] = molecular target: T1, Organic cation/carnitine transporter 2; assay: TP_TRANSPORTER: inhibition of carnitine transport by Carnitine-related compound-7A at 20uM in Xenopus laevis oocytes; assay type: functional, cell-based, Oocyte; design: scale not given: the % may be the effect or the level left; conditions: probe carnitine, read-out: Activity
[16] = molecular target: T2, Solute carrier family 22 member 16; assay: TP_TRANSPORTER: inhibition of carnitine transport by Octanoyl-carnitine at 5uM in Xenopus laevis oocytes; assay type: functional, cell-based; design: scale not given: the % may be the effect or the level left; conditions: oocyte
[17] = molecular target: T1, Organic cation/carnitine transporter 2; assay: TP_TRANSPORTER: inhibition of carnitine uptake by Carnitine-related compound-4A at 20uM in Xenopus laevis oocytes; assay type: functional, cell-based; design: scale not given: the % may be the effect or the level left; conditions: oocyte
[18] = molecular target: Solute carrier family 22 member 16 (Homo sapiens) (UniProt Q86VW1); assay: TP_TRANSPORTER: inhibition of carnitine uptake by Carnitine-related compound-4A at 20uM in Xenopus laevis oocytes; design: scale not given: the % may be the effect or the level left; conditions: Oocyte
[19] = molecular target: Solute carrier family 22 member 16 (Homo sapiens) (UniProt Q86VW1); assay: TP_TRANSPORTER: inhibition of carnitine uptake by Carnitine-related compound-8A at 20uM in Xenopus laevis oocytes; design: scale not given: the % may be the effect or the level left; conditions: Oocyte
[20] = molecular target: T1, Organic cation/carnitine transporter 2; assay: TP_TRANSPORTER: inhibition of carnitine transport by Carnitine-related compound-8A at 20uM in Xenopus laevis oocytes; assay type: functional, cell-based, Oocyte; design: scale not given: the % may be the effect or the level left; conditions: probe carnitine, read-out: Activity
[21] = molecular target: Solute carrier family 22 member 16 (Homo sapiens) (UniProt Q86VW1); assay: TP_TRANSPORTER: inhibition of carnitine uptake by Carnitine-related compound-18 at 20uM in Xenopus laevis oocytes; design: scale not given: the % may be the effect or the level left; conditions: Oocyte
[22] = molecular target: T1, Organic cation/carnitine transporter 2; assay: TP_TRANSPORTER: inhibition of carnitine uptake by Carnitine-related compound-13 at 20uM in Xenopus laevis oocytes; assay type: functional, cell-based, Oocyte; design: scale not given: the % may be the effect or the level left; conditions: probe carnitine, read-out: Activity
[23] = molecular target: Solute carrier family 22 member 16 (Homo sapiens) (UniProt Q86VW1); assay: TP_TRANSPORTER: inhibition of carnitine uptake by Carnitine-related compound-13 at 20uM in Xenopus laevis oocytes; design: scale not given: the % may be the effect or the level left; conditions: Oocyte
[24] = molecular target: T1, Organic cation/carnitine transporter 2; assay: TP_TRANSPORTER: inhibition of carnitine uptake by Carnitine-related compound-2A at 20uM in Xenopus laevis oocytes; assay type: functional, cell-based, Oocyte; design: scale not given: the % may be the effect or the level left; conditions: probe carnitine, read-out: Activity
[25] = molecular target: Solute carrier family 22 member 16 (Homo sapiens) (UniProt Q86VW1); assay: TP_TRANSPORTER: inhibition of carnitine uptake by Carnitine-related compound-2A at 20uM in Xenopus laevis oocytes; design: scale not given: the % may be the effect or the level left; conditions: Oocyte
[26] = molecular target: T2, Solute carrier family 22 member 16; assay: TP_TRANSPORTER: inhibition of carnitine in Xenopus laevis oocytes; assay type: functional, cell-based, Oocyte
[27] = molecular target: Solute carrier family 22 member 16 (Homo sapiens) (UniProt Q86VW1); assay: TP_TRANSPORTER: inhibition of carnitine uptake by Carnitine-related compound-6A at 20uM in Xenopus laevis oocytes; design: scale not given: the % may be the effect or the level left; conditions: Oocyte
[28] = substrate: C[N+](C)(C)CC(O)CC(=O)[O-]; assay: TP_TRANSPORTER: uptake in Xenopus laevis oocytes; assay type: functional, cell-based, Oocyte

activity at 20 µM [1]: 20%
Activity [2]: 20%
Molecule: CC[N+](C)(CC)CCCCC(=O)O

activity at 20 µM [5]: 70%
Molecule: CC[N+](CC)(CC)CC(O)CC(=O)[O-] (stereo not drawn)

Activity [6]: 50%
Molecule: CC[N+](C)(CC)CCCCCCC(=O)O

Activity [14]: 20%
activity at 20 µM [15]: 35%
Molecule: C[N+](C)(C)CCCCCC(=O)O

Activity [21]: 20%
Molecule: CC[N+](CC)(CC)CC(O)CCC(=O)[O-] (stereo not drawn)

activity at 20 µM [22]: 40%
Activity [23]: 20%
Molecule: C[N+](C)(C)CC(O)CC(=O)[O-] (stereo not drawn) [CARNITINE]

activity at 20 µM [24]: 40%
Activity [25]: 20%
Molecule: C[N+](C)(C)CCCCC(=O)O

Continued, molecule first:

Molecule: C[N+](C)(C)CCCCCCC(=O)O
Activity [3]: 40%
activity at 20 µM [4]: 50%

Molecule: CC(=O)O[C@H](CC(=O)[O-])C[N+](C)(C)C [ACETYLCARNITINE]
activity at 5 µM [7]: 70%

Molecule: CC[N+](CC)(CC)CCCCCCC(=O)O
Activity [8]: 50%

Molecule: CC[N+](CC)(CC)CCCCCC(=O)O
activity at 20 µM [9]: 30%
Activity [10]: 20%

Molecule: CC[N+](CCCCC(=O)O)(C(C)C)C(C)C
Activity [11]: 20%
activity at 20 µM [12]: 40%

Molecule: CC[N+](C)(CC)CC(O)CCC(=O)[O-] (stereo not drawn)
Activity [13]: 20%

Molecule: CCCCCCCC(=O)OC(CC(=O)O)C[N+](C)(C)C.[Cl-] (stereo not drawn) [Octanoyl-carnitine]
Activity [16]: 70%

Molecule: CC[N+](CC)(CC)CCCCC(=O)O.[Cl-]
Activity [17]: 50%
Activity [18]: 20%

Molecule: CC[N+](C)(CC)CCCCCC(=O)O
Activity [19]: 30%
activity at 20 µM [20]: 20%

Molecule: C[N+](C)(C)C[C@@H](O)CC(=O)[O-] [D-CARNITINE]
Ki [26]: 30 µM

Molecule: CCC[N+](CCC)(CCC)CCCCC(=O)O
Activity [27]: 70%

B1: Solute carrier family 22 member 16 (Homo sapiens) (protein)
chain: MGSRHFEGIYDHVGHFGRFQRVLYFICAFQNISCGIHYLASVFMGVTPHHVCRPPGNVSQVVFHNHSNWSLEDTGALLSSGQKDYVTVQLQNGEIWELSRCSRNKRENTSSLGYEYTGSKKEFPCVDGYIYDQNTWKSTAVTQWNLVCDRKWLAMLIQPLFMFGVLLGSVTFGYFSDRLGRRVVLWATSSSMFLFGIAAAFAVDYYTFMAARFFLAMVASGYLVVGFVYVMEFIGMKSRTWASVHLHSFFAVGTLLVALTGYLVRTWWLYQMILSTVTVPFILCCWVLPETPFWLLSEGRYEEAQKIVDIMAKWNRASSCKLSELLSLDLQGPVSNSPTEVQKHNLSYLFYNWSITKRTLTVWLIWFTGSLGFYSFSLNSVNLGGNEYLNLFLLGVVEIPAYTFVCIAMDKVGRRTVLAYSLFCSALACGVVMVIPQKHYILGVVTAMVGKFAIGAAFGLIYLYTAELYPTIVRSLAVGSGSMVCRLASILAPFSVDLSSIWIFIPQLFVGTMALLSGVLTLKLPETLGKRLATTWEEAAKLESENESKSSKLLLTTNNSGLEKTEAITPRDSGLGE
Km [28]: 20 µM
